{
  "source": "patent US20260201062A1",
  "about": "“LIGAND-DRUG CONJUGATE OF EXATECAN ANALOGUE, PREPARATION METHOD THEREFOR AND APPLICATION THEREOF” (JIANGSU HENGRUI MEDICINE CO., LTD., priority 2018, published 2026)",
  "key": {"[1]": {"test_system": "SK-BR-3 tumor cells (human breast cancer cells)", "test": "In vitro inhibition of compound of formula (D) on tumor cell proliferation (CTG), SK-BR-3", "format": "cell-based", "conditions": "read-out: IC50 of in vitro inhibition on the proliferation of SK-BR-3 cells", "method": "(§1) The purpose of this test is to test the in vitro inhibition effect of the drug compound of formula (D) of the present invention on the proliferation of U87MG cells (Chinese Academy of Sciences cell bank, Catalog #TCHu138) and SK-BR-3 tumor cells (human breast cancer cells, ATCC, article number HTB-30). The cells were treated with different concentrations of the compound in vitro. After 6 days of cultivation, the cell proliferation was determined by CTG reagent (CellTiter-Glo® Luminescent Cell Viability Assay, Promega, article number: G7573), and the in vitro activity of the compound was evaluated according to the IC50 value.\nThe test method for in vitro proliferation inhibition test of the present compounds on tumor cells is described below by taking in vitro proliferation inhibition test method onU87MG cells as an example. This method is also applicable to, but not limited to, the in vitro proliferation inhibition tests on other tumor cells. • 1. Cell cultivation: U87MG cells and SK-BR-3 cells were cultured in EMEM medium containing 10% FBS (GE, article number SH30024.01) and McCoy's 5A medium containing 10% FBS (Gibco, article number 16600-108), respectively. • 2. Cell preparation: U87MG cells and SK-BR-3 cells in logarithmic growth phase were washed with PBS (phosphate buffer, Shanghai Basal Media Technologies Co., Ltd.) once, and then added with 2-3 ml of trypsin (0.25% Trypsin-EDTA (1×), Gibico, Life Technologies) to digest for 2-3 min. 10-15 ml of cell culture medium was added after the cells were completely digested. The digested cells were eluted, and centrifuged at 1000 rpm for 5 min. The supernatant was discarded, and 10-20 ml of cell culture medium was added to resuspend the cells to obtain a single-cell suspension. • 3. Cell plating: the U87MG and SK-BR-3 single-cell suspensions were mixed well, and the cell densities were adjusted to 2.75×10^3 cells/ml and 8.25×10^3 cells/ml with the cell culture medium respectively. The density-adjusted cell suspension was mixed well, and added to a 96-well cell culture plate at 180 μl/well. 200 μl of culture medium was added to the peripheral wells of the 96-well plate. The plate was incubated in an incubator for 24 hours (37° C., 5% CO2). • 4. Compound formulation: the compound was dissolved with DMSO (dimethylsulfoxide, Shanghai Titan Technology Co., Ltd.) to obtain a stock solution with an initial concentration of 10 mM.\nThe initial concentration of the small molecule compound was 500 nM, and the formulating method is as follows.\n30 μl of different test samples were respectively added into the first column of the 96-well U-shaped bottom formulating plate with a sample concentration of 100 µM. 20 µl of DMSO was added to each well from the second column to the 11th column. […]"}, "[2]": {"test_system": "U87MG cells", "test": "In vitro inhibition of compound of formula (D) on tumor cell proliferation (CTG), U87MG", "format": "cell-based", "conditions": "Homo sapiens, U-87 MG, 144 h, read-out: IC50 of in vitro inhibition on the proliferation of U87 cells", "method": "as §1\nThe test method for in vitro proliferation inhibition test of the present compounds on tumor cells is described below by taking in vitro proliferation inhibition test method onU87MG cells as an example. This method is also applicable to, but not limited to, the in vitro proliferation inhibition tests on other tumor cells. • 1. Cell cultivation: U87MG cells and SK-BR-3 cells were cultured in EMEM medium containing 10% FBS (GE, article number SH30024.01) and McCoy's 5A medium containing 10% FBS (Gibco, article number 16600-108), respectively. • 2. […]"}, "[3]": {"test_system": "trastuzumab (Herceptin) resistant human breast cancer cell strain JIMT-1 transplanted tumor", "test": "Efficacy evaluation in JIMT-1 tumor-bearing mice", "format": "in vivo, Nunu nude mice", "conditions": "10 mg/kg, intraperitoneal injection 2 times, Day 34", "source_text": "Formulation method: the drugs were all diluted and formulated with PBS. • 3. Test animals • Nunu nude mice, purchased from Beijing Vital River Laboratory Animal Technology Co., Ltd.\nJIMT-1 cells (Nanjing Cobioer Biosciences Co., Ltd.) (5×10^6 cells/mouse, having 50% matrigel) were inoculated subcutaneously in the right rib of mouse. After the tumor grew for 8 days and reached 203.09±11.94 mm^3, the animals were randomly grouped into 6 groups with 8 animals per group (d1).\nThe drugs were administered by intraperitoneal injection for a total of 2 times. The tumor volume and body weight were measured twice a week, and the data were recorded.\nExcel 2003 statistical software was used for data statistics: mean value was calculated as avg; SD value was calculated as STDEV; SEM value was calculated as STDEV/SQRT; P value between different groups was calculated as TTEST.\n[formula] [formula] [formula] • wherein V0 and VT represent the tumor volume at the beginning of the test and at the end of the test, respectively. CRTV and TRTV represent the relative tumor volume of the blank control group (Vehicle, PBS) and the test group at the end of the test, respectively."}, "[4]": {"conditions": "144 h, SK-BR-3, 6 days of cultivation, CTG reagent"}},
  "note": "Where two headings read alike, the source gives them in different places.",
  "data": [
    {"molecule": "CC[C@@]1(O)C(=O)OCc2c1cc1n(c2=O)Cc2c-1nc1cc(F)c(C)c3c1c2[C@@H](NC(=O)C1(O)CC1)CC3", "note": "[Compound 1, N-((1S,9S)-9-Ethyl-5-fluoro-9-hydroxy-4-methyl-10,13-dioxo-2,3,9,10,13,15-hexahydro-1H,12H-benzo[de]pyrano[3′,4′:6,7]indolizino[1,2-b]quinolin-1-yl)-1-hydroxycyclopropane-1-carboxamide]", "values": [
      {"measurement": "IC50", "setting": "[1]; SK-BR-3, 144 h", "value": 0.12, "unit": "nM"},
      {"measurement": "IC50", "setting": "[2]", "value": 0.23, "unit": "nM"}
    ]},
    {"molecule": "CC[C@@]1(O)C(=O)OCc2c1cc1n(c2=O)Cc2c-1nc1cc(F)c(C)c3c1c2[C@@H](NC(=O)C1(O)CCCC1)CC3", "note": "[Compound 4, N-((1S,9S)-9-Ethyl-5-fluoro-9-hydroxy-4-methyl-10,13-dioxo-2,3,9,10,13,15-hexahydro-1H,12H-benzo[de]pyrano[3′,4′:6,7]indolizino[1,2-b]quinolin-1-yl)-1-hydroxycyclopentane-1-carboxamide]", "values": [
      {"measurement": "IC50", "setting": "[1]; SK-BR-3, 144 h", "value": 1.9, "unit": "nM"}
    ]},
    {"molecule": "CC[C@@]1(O)C(=O)OCc2c1cc1n(c2=O)Cc2c-1nc1cc(F)c(C)c3c1c2[C@@H](NC(=O)C1(CO)CC1)CC3", "note": "[Compound 5, N-((1S,9S)-9-Ethyl-5-fluoro-9-hydroxy-4-methyl-10,13-dioxo-2,3,9,10,13,15-hexahydro-1H,12H-benzo[de]pyrano[3′,4′:6,7]indolizino[1,2-b]quinolin-1-yl)-1-(hydroxymethyl) cyclopropane-1-carboxamide]", "values": [
      {"measurement": "IC50", "setting": "[2]", "value": 4.81, "unit": "nM"}
    ]},
    {"molecule": "CC[C@@]1(O)C(=O)OCc2c1cc1n(c2=O)Cc2c-1nc1cc(F)c(C)c3c1c2[C@@H](NC(=O)C1(CO)CCC1)CC3", "note": "[Compound 6, N-((1S,9S)-9-Ethyl-5-fluoro-9-hydroxy-4-methyl-10,13-dioxo-2,3,9,10,13,15-hexahydro-1H,12H-benzo[de]pyrano[3′,4′:6,7]indolizino[1,2-b]quinolin-1-yl)-1-(hydroxymethyl) cyclobutane-1-carboxamide]", "values": [
      {"measurement": "IC50", "setting": "[1]; [4]", "value": 1, "unit": "nM"}
    ]},
    {"molecule": "CC[C@@]1(O)C(=O)OCc2c1cc1n(c2=O)Cc2c-1nc1cc(F)c(C)c3c1c2[C@@H](NC(=O)C1(O)CCC1)CC3", "note": "[Compound 7, N-((1S,9S)-9-Ethyl-5-fluoro-9-hydroxy-4-methyl-10,13-dioxo-2,3,9,10,13,15-hexahydro-1H,12H-benzo[de]pyrano[3′,4′:6,7]indolizino[1,2-b]quinolin-1-yl)-1-hydroxycyclobutane-1-carboxamide]", "values": [
      {"measurement": "IC50", "setting": "[1]; [4]", "value": 1, "unit": "nM"}
    ]},
    {"molecule": "T-DM1", "values": [
      {"measurement": "tumor inhibition rate", "setting": "[3]", "value": "no inhibition effect on tumor"}
    ]}
  ]
}
